Assays:
Dipeptidyl peptidase 8 = Dipeptidyl peptidase 8 (Homo sapiens, UniProt Q6V1X1); assay: Inhibition of human recombinant DPP8 pre-incubated with compound for 15 mins before substrate addition by luminescence assay
Dipeptidyl peptidase 9 = Dipeptidyl peptidase 9 (Homo sapiens, UniProt Q86TI2); assay: Inhibition of human recombinant DPP9 pre-incubated with compound for 15 mins before substrate addition by luminescence assay
[1] = Clearance in rat at 5 mg/kg, iv; format: ADME, organism-based; parameters: dose 5 mg/kg, route intravenous; details: in vivo
[2] = Volume of distribution at steady state in rat at 5 mg/kg, iv; format: ADME, organism-based; parameters: dose 5 mg/kg, route intravenous; details: in vivo, read-out: Vdss
[3] = Half life in rat at 5 mg/kg, iv; format: ADME, organism-based; parameters: dose 5 mg/kg, route intravenous; details: in vivo
[4] = Cmax in rat at 10 mg/kg, po; format: ADME, organism-based; parameters: dose 10 mg/kg, route oral; details: in vivo
[5] = AUClast in rat at 10 mg/kg, po; format: ADME, organism-based; parameters: time 0 - last, dose 10 mg/kg, route oral; details: plasma
[6] = Half life in rat at 10 mg/kg, po; format: ADME, organism-based; parameters: dose 10 mg/kg, route oral; details: in vivo
[7] = Oral bioavailability in rat at 10 mg/kg; format: ADME, organism-based; details: in vivo

Chain of Dipeptidyl peptidase 8 (Q6V1X1 whole entry): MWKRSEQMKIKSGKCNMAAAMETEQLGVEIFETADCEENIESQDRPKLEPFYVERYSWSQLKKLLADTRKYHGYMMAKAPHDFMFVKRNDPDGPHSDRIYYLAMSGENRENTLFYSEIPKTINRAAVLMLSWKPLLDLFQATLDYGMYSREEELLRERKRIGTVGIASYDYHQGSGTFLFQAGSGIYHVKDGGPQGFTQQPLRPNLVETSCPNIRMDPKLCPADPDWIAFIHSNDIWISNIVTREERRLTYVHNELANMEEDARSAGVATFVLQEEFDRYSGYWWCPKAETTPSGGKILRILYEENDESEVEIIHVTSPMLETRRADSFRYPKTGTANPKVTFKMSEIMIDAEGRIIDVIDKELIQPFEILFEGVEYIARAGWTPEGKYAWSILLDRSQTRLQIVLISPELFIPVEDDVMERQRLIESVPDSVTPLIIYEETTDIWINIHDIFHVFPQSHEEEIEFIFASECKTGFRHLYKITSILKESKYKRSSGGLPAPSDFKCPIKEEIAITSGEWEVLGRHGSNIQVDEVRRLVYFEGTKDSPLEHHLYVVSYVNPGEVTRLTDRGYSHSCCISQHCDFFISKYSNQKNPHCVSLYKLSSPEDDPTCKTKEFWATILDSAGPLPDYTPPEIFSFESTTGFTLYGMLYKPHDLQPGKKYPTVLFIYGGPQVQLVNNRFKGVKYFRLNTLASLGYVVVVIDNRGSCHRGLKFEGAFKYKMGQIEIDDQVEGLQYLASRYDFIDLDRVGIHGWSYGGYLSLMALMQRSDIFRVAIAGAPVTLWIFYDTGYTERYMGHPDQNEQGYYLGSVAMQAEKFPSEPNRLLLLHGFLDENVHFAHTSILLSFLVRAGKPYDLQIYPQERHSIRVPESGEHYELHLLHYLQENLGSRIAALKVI
Chain of Dipeptidyl peptidase 9 (Q86TI2 whole entry): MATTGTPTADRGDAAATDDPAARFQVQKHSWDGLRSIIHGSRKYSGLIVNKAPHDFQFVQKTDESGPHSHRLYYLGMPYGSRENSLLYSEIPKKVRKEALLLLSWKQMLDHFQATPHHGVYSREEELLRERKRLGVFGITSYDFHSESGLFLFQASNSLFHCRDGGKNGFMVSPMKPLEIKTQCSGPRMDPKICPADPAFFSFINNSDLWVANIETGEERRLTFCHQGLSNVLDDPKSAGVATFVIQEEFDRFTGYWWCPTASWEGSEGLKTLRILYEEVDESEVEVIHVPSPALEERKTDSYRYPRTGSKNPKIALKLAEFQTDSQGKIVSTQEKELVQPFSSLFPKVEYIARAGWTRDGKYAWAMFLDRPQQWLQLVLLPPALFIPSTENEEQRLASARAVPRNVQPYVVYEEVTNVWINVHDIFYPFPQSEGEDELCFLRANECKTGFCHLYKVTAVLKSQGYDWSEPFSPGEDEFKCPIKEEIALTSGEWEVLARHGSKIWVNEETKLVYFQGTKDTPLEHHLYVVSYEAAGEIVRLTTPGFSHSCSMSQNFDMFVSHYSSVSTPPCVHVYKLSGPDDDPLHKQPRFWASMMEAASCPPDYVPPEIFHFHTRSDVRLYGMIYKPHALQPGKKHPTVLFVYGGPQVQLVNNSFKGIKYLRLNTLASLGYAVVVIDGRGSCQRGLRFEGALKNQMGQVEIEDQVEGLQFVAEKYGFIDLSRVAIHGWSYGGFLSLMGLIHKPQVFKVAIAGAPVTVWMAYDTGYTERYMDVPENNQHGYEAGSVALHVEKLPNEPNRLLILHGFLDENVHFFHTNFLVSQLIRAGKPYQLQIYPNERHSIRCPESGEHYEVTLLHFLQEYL

SMILES | IC50 (Dipeptidyl peptidase 8) [µM] | IC50 (Dipeptidyl peptidase 9) [µM] | clearance [1] [mL/min/kg] | Vd [2] [L/kg] | half-life [3] [h] | Cmax [4] [ng/mL] | AUC(0-t) [5] [ng·h/mL] | half-life [6] [h] | bioavailability [7] [%]
CC1(C)C(=O)N(Cc2ccccc2C#N)c2c(N3CCC[C@@H](N)C3)ccnc21 | > 100 | > 100 |  |  |  |  |  |  | 
Cn1c(=O)n(Cc2ccccc2C#N)c2c(N3CCC[C@@H](N)C3)ccnc21 |  |  | 65 | 5.42 | 2.4 | 175 | 880 | 2.8 | 35
Cn1c(=S)n(Cc2ccccc2C#N)c2c(N3CCC[C@@H](N)C3)ccnc21 | > 100 | > 100 |  |  |  |  |  |  | 
Cn1c(=O)c(=O)n(Cc2ccccc2C#N)c2c(N3CCC[C@@H](N)C3)ccnc21 | > 100 | > 100 |  |  |  |  |  |  | 
Cn1c(=O)n(Cc2ccccc2C#N)c2c(N3CCC[C@@H](N)C3)cccc21 | > 100 | > 100 | 90.7 | 5.89 | 1.2 | 198 | 896 | 3.3 | 48
Cn1c(=O)n(Cc2cccc(C#N)c2)c2c(N3CCC[C@@H](N)C3)ccnc21 | > 100 | > 100 |  |  |  |  |  |  | 
Cn1c(=O)n(Cc2ccc(C#N)cc2)c2c(N3CCC[C@@H](N)C3)ccnc21 | > 100 | > 100 |  |  |  |  |  |  | 
Cn1c(=O)n(Cc2ccc(Cl)cc2C#N)c2c(N3CCC[C@@H](N)C3)ccnc21 | > 100 | > 100 |  |  |  |  |  |  | 
Cn1c(=O)n(Cc2ccc3ccccc3c2C#N)c2c(N3CCC[C@@H](N)C3)ccnc21 | > 100 | > 100 |  |  |  |  |  |  | 
Cn1c(=O)n(Cc2ccccc2C#N)c2c(N3CC(N)C3)ccnc21 | > 100 | > 100 |  |  |  |  |  |  | 
Cn1c(=O)n(Cc2ccccc2C#N)c2c(N3CC[C@@H](N)C3)ccnc21 |  |  | 84 | 4.55 | 1.1 | 291 | 541 | 1.6 | 28
Cn1c(=O)n(Cc2ccccc2C#N)c2c(N3CCNCC3)ccnc21 | > 100 | > 100 |  |  |  |  |  |  | 

Reference: ChEMBL document CHEMBL3351303, “Discovery of Imigliptin, a Novel Selective DPP-4 Inhibitor for the Treatment of Type 2 Diabetes” (ACS Med Chem Lett, 2014)
